From article PMC11204543, “Halenaquinol Blocks Staphylococcal Protein A Anchoring on Cell Wall Surface by Inhibiting Sortase A in Staphylococcus aureus” (Marine Drugs, 2024)
Values joined by “and” are separate entries in the source; they are usually repeats but may differ in a detail not shown here. Identical values can stand only once. “Also recorded” adds a separate entry of the source.

Columns and labels:
S. aureus ATCC6538p = test: Antibacterial activity (CLSI broth dilution MIC); format: cell-based; settings: Staphylococcus aureus, ATCC6538P, 12 h
Description: The SrtA inhibitory activity of compounds 1–6, along with that of a known SrtA inhibitor, quercetin [24], was evaluated in vitro using a fluorescence-based enzymatic assay. Recombinant SrtA from S. aureus ATCC6538p was expressed in Escherichia coli and was purified using nickel affinity chromatography. The cleavage of a synthetic peptide substrate by the SrtA enzyme emitted fluorescence, which was then measured. Table 1 presents the half maximal inhibitory concentration (IC50) values calculated from SrtA inhibition rates. […] As SrtA inhibitors act as anti-infective agents by disrupting bacterial pathogenesis without affecting microbial viability, minimum inhibitory concentration (MIC) values were examined to determine their effects on bacterial cell growth.
An assessment of the antibacterial properties of the isolated compounds was conducted in accordance with the protocols provided by the Clinical and Laboratory Standard Institute (CLSI). The S. aureus ATCC6538p strain was cultivated overnight at 37 °C in Mueller–Hinton broth (MHB, BD Difco, Sparks, MD, USA). Subsequently, it was harvested using centrifugation, rinsed with sterilized deionized water, and adjusted to the optical density of a 0.5 McFarland standard (625 nm). Test compounds, initially dissolved in DMSO, were further diluted with MHB to achieve a range of 2-fold serial dilutions from 0.25 to 128 μg/mL (maintaining a final DMSO concentration of 1%). In a 96-well plate, 90 μL of the MHB containing the test compound were combined with 10 μL of broth inoculated with the bacterium (final bacterial concentration: 5 × 10^5 cfu/mL). Following a 12 h incubation at 37 °C, the MICs were determined as the lowest concentration at which bacterial growth was inhibited. Ampicillin (Duchefa, Amsterdam, The Netherlands) served as the reference standard.

[1] = system: srtA and spa mRNA expression in S. aureus Newman; test: Semiquantitative reverse transcription PCR of srtA and spa mRNA; format: cell-based, Staphylococcus aureus
Excerpt: To ascertain whether halenaquinol inhibits the transcription of srtA or blocks its function at an enzyme level without affecting the expression of the srtA gene, the mRNA expression level of srtA in response to various concentrations and exposure times of halenaquinol was initially explored using semi-quantitative reverse transcription PCR (RT-PCR). Total RNA isolated from S. aureus Newman was transcribed into cDNA, and it was used as a template to amplify the target genes. A time-course analysis assessed the impact of halenaquinol on srtA expression at different intervals from 0 to 60 min. […] Furthermore, the expression level of srtA was analyzed after 40 min of incubation at various concentrations of halenaquinol.
Figure 3 Effect of SrtA inhibitors on srtA and spa mRNA expression. S. aureus Newman cells were incubated in the presence of halenaquinol and quercetin. mRNA expression levels of cells were examined using semiquantitative RT-PCR. (A) The time courses of mRNA expression of gyrB and srtA were monitored. Total RNA was isolated from cells grown in medium containing 0.2% dimethyl sulfoxide (DMSO, negative control), halenaquinol or quercetin (positive control). (B) Cells were grown in medium containing the indicated concentrations of halenaquinol or quercetin. The gyrB gene was used as a loading control.
The S. aureus Newman strain was inoculated into 5 mL of trypticase soy broth (TSB) and incubated overnight at 37 °C with shaking. Cultures were diluted 1:100 into TSB and grown until the OD600 reached approximately 0.3. Cultures (5 mL) were aliquoted, and the test compound was added with less than 0.2% DMSO. The negative control group was treated with DMSO only. Cultures were then incubated at 37 °C with shaking and harvested at specific incubation times. Then, 1 mL of each culture was centrifuged, and the pellet was stored at −80 °C. RNA was isolated using the easy-BLUE total RNA extraction kit (iNtRON Biotechnology, Boston, MA, USA). […]

[2] = system: SpA surface display on S. aureus Newman; test: Immunofluorescence microscopy of SpA surface display; format: cell-based, Staphylococcus aureus; settings: 8 × IC50 (111.52 μM)
Description: Figure 5 Fluorescence microscopy images of SpA surface display. […] BF identifies the bright-field microscopy view of fluorescence microscopy images. Scale bar, […].
The surface display of SpA was visualized following established procedures. A solution of 0.01% poly-L-lysine (Sigma-Aldrich) was added to each well of an 8-well glass chamber slide (SPL) and incubated at 25 °C for 5 min to coat the slide. After washing each well with distilled water and ensuring complete drying, 1 mL of cells, prepared as described above for the re-expression of the cell surface protein, was suspended in PBS containing 0.05% Tween 80 (PBST) and was thoroughly vortexed. A total of 250 μL of suspension was removed and incubated at 25 °C for 20 min with 250 μL of PBS (2.4% paraformaldehyde, 0.006% glutaraldehyde, and 0.05% Tween 80). The fixed cells were washed twice with PBST, and 150 μL of cells were added to the coated slide and incubated at 25 °C for 5 min. […] After washing seven times, anti-fade fluorescence mounting medium (Abcam, Cambridge, UK) was added. […] Images were captured using AiryScan fluorescence detectors and a transmitted light detector (T-PMT) under 10× scan zoom, bidirectional scan, 4× averaging. All the images were analyzed in ZEN 2.1 software (Carl Zeiss).

## C[C@@]12CCC(=O)c3coc(c31)C(=O)c1cc3c(O)ccc(O)c3cc12 [Compound 2, halenaquinol]
S. aureus ATCC6538p
  MIC: 383 µM and > 128 µg/mL
[1]; S. aureus Newman, semi-quantitative RT-PCR
  inhibition of the transcription of srtA and spA: does not inhibit
[1]; after 40 min of incubation, increasing concentrations
  PCR band intensity representing mRNA expression of srtA and spa: slightly increased
[1]; time course 0 to 60 min, gyrB consistent
  PCR band intensity representing srtA mRNA expression: increased over time
[2]
  SpA surface display / inhibition of SpA anchoring: comparable to those for an srtA-deletion mutant; also recorded: significantly reduced
